{"source": "patent US10988477B2", "about": "(Merck Patent GmbH, priority 2018, dated 2021)"}
{"molecular_target": "GCN2 kinase (Homo sapiens, UniProt Q9P2K8)", "sequence (Q9P2K8 whole entry)": "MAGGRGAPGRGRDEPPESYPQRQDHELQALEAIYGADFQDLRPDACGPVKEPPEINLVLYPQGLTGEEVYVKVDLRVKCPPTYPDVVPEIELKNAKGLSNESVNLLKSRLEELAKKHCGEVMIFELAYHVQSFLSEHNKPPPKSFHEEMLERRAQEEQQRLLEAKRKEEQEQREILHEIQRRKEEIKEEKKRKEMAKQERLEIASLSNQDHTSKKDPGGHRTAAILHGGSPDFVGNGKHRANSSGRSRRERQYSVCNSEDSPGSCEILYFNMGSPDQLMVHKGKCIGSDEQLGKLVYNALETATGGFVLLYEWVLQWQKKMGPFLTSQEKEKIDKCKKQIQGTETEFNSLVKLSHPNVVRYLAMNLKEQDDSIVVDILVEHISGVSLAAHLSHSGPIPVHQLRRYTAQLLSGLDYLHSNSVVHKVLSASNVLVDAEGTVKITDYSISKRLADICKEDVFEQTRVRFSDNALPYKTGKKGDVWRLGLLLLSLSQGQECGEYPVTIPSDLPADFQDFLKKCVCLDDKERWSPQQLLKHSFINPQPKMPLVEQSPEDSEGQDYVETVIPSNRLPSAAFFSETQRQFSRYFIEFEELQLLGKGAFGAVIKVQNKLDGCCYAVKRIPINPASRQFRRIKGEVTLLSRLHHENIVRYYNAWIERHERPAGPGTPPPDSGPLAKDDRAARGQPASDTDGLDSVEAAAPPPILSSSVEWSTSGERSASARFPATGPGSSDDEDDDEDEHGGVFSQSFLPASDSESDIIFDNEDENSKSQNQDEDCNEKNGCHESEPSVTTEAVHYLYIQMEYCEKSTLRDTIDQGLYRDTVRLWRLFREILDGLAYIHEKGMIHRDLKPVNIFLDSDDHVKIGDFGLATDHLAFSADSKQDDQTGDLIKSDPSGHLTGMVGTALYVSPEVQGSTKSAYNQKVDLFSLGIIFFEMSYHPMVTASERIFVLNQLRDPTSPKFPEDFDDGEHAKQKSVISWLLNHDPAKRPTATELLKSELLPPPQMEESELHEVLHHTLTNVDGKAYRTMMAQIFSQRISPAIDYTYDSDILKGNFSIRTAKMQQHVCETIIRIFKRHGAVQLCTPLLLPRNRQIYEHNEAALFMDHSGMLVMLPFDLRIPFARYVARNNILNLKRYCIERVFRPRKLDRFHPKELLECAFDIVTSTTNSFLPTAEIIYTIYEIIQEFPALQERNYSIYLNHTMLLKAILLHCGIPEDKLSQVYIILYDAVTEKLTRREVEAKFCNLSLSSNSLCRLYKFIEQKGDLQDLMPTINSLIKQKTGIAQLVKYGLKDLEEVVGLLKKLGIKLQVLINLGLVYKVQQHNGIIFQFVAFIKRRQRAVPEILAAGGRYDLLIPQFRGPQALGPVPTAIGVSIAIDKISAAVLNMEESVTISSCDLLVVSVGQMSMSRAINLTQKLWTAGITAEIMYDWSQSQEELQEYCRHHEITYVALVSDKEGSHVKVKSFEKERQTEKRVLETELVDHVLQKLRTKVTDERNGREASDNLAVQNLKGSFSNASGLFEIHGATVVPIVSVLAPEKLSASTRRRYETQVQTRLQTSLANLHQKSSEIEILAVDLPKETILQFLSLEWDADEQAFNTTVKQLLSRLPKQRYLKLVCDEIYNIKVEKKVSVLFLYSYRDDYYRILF", "assay": "GCN2 enzyme inhibition assay (Transcreener ADP2 fluorescence polarization)", "format": "biochemical", "settings": "Enzyme activity for compounds of Formula IV; Ki(app), 280 μM ATP, 25° C.", "method_in_brief": "(§1)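 4 nM GCN2 + 200 μM (RS)7 + compound (0–8 μM), 10 min preinc.; start with ATP (280 μM final); 1 h, 25 °C; pH 7.5 Tris/NaCl/MgCl2/DTT; ADP FP readout; IC50, Ki(app) via tight-binding fit.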", "units": {"Ki": "nM"}}
{"compound": "FC(F)(F)c1cn2c(-c3nccc(N4CCCC(n5ccc(C(F)(F)F)n5)C4)n3)cnc2cn1", "note": "(stereo not drawn) [IV-664, 6-(Trifluoromethyl)-3-(4-(3-(3-(trifluoromethyl)-1H-pyrazol-1-yl)piperidin-1-yl)pyrimidin-2-yl)imidazo[1,2-a]pyrazine]", "Ki": "100 to 1000"}
{"compound": "CC(=O)NCC1CCCN(c2ccnc(-c3cnc4cnc(C(F)(F)F)cn34)n2)C1", "note": "(stereo not drawn) [IV-526, N-((1-(2-(6-(Trifluoromethyl)imidazo[1,2-a]pyrazin-3-yl)pyrimidin-4-yl)piperidin-3-yl)methyl)acetamide]", "Ki": "100 to 1000"}
{"compound": "CC1C(c2cn[nH]c2)OCCN1c1ccnc(-c2cnc3cnc(Cl)cn23)n1", "note": "(single isomer, unassigned) [IV-244, 4-(2-(6-Chloroimidazo[1,2-a]pyrazin-3-yl)pyrimidin-4-yl)-3-methyl-2-(1H-pyrazol-4-yl)morpholine]", "Ki": "100 to 1000"}
{"compound": "CC1CN(c2nccc(-c3cnc4cnc(Cl)cn34)n2)C(C)C(c2cn[nH]c2)N1", "note": "(stereo not drawn) [IV-382, 6-Chloro-3-(2-(2,5-dimethyl-3-(1H-pyrazol-4-yl)piperazin-1-yl)pyrimidin-4-yl)imidazo[1,2-a]pyrazine]", "Ki": "10 to 100"}
{"compound": "OCCC1CCCCN1c1ccnc(-c2cnc3cnc(C(F)(F)F)cn23)n1", "note": "(stereo not drawn) [IV-438, 2-(1-(2-(6-(Trifluoromethyl)imidazo[1,2-a]pyrazin-3-yl)pyrimidin-4-yl)piperidin-2-yl)ethan-1-ol]", "Ki": "100 to 1000"}
{"compound": "CC1(C)CN(c2ccnc(-c3cnc4cnc(C(F)(F)F)cn34)n2)CC(c2cn[nH]c2)N1", "note": "(stereo not drawn) [IV-327, 3-(4-(3,3-Dimethyl-5-(1H-pyrazol-4-yl)piperazin-1-yl)pyrimidin-2-yl)-6-(trifluoromethyl)imidazo[1,2-a]pyrazine]", "Ki": "10 to 100"}
{"compound": "CS(=O)(=O)C1CCCN(c2ccnc(-c3cnc4cnc(C(F)(F)F)cn34)n2)C1", "note": "(stereo not drawn) [IV-483, 3-(4-(3-(Methylsulfonyl)piperidin-1-yl)pyrimidin-2-yl)-6-(trifluoromethyl)imidazo[1,2-a]pyrazine]", "Ki": "100 to 1000"}
{"compound": "CC(=O)N1CCN(c2ccnc(-c3cnc4cnc(C(N)=O)cn34)n2)CC1(C)C", "note": "[IV-699, 3-(4-(4-Acetyl-3,3-dimethylpiperazin-1-yl)pyrimidin-2-yl)imidazo[1,2-a]pyrazine-6-carboxamide]", "Ki": "100 to 1000"}
{"compound": "OCC1CCN(c2ccnc(-c3cnc4cnc(C(F)(F)F)cn34)n2)C1", "note": "(stereo not drawn) [IV-434, (1-(2-(6-(Trifluoromethyl)imidazo[1,2-a]pyrazin-3-yl)pyrimidin-4-yl)pyrrolidin-3-yl)methanol]", "Ki": "100 to 1000"}
{"compound": "FC(F)(F)c1cn2c(-c3nccc(N4CCO[C@@H](c5ccccn5)C4)n3)cnc2cn1", "note": "[IV-722]", "Ki": "100 to 1000"}
{"molecular_target": "GCN2 kinase (Homo sapiens, UniProt Q9P2K8)", "assay": "GCN2 enzyme inhibition assay (Transcreener ADP2 fluorescence polarization)", "format": "biochemical", "settings": "compounds of Formula II; 280 μM ATP, 4 nM GCN2 kinase", "method_in_brief": "as §1", "units": {"Ki": "nM"}}
{"compound": "CS(=N)(=O)Cc1cccc(-c2cc(-c3cnc4ccc(C(F)F)nn34)ncn2)c1", "note": "(stereo not drawn) [II-598, (3-(6-(6-(Difluoromethyl)imidazo[1,2-b]pyridazin-3-yl)pyrimidin-4-yl)benzyl)(imino)(methyl)-λ^6-sulfanone]", "Ki": "10 to 1000"}
{"compound": "O=C(O)[C@@H]1CCCN(c2cc(-c3cnc4ccc(C(F)F)nn34)ncn2)C1", "note": "[II-508, (R)-1-(6-(6-(Difluoromethyl)imidazo[1,2-b]pyridazin-3-yl)pyrimidin-4-yl)piperidine-3-carboxylic acid]", "Ki": "10 to 1000"}
{"compound": "CC1C(CNS(C)(=O)=O)C(F)(F)C(C)CN1c1cc(-c2cnc3ccc(C(F)F)nn23)ncn1", "note": "(single isomer, unassigned) [II-468, N-((1-(6-(6-(Difluoromethyl)imidazo[1,2-b]pyridazin-3-yl)pyrimidin-4-yl)-4,4-difluoro-2,5-dimethylpiperidin-3-yl)methyl)methanesulfonamide]", "Ki": "10 to 1000"}
{"compound": "Cc1cc(CNS(C)(=O)=O)cc(-c2cc(-c3cnc4ccc(C(F)F)nn34)ncn2)c1", "note": "[II-612, N-(3-(6-(6-(Difluoromethyl)imidazo[1,2-b]pyridazin-3-yl)pyrimidin-4-yl)-5-methylbenzyl)methanesulfonamide]", "Ki": "< 10"}
{"compound": "FC(F)c1ccc2ncc(-c3ccnc(N4CCCNCC4)c3)n2n1", "Ki": "10 to 1000"}
